The assay relates to Glyphosate-resistant Palmer amaranth plants (33, 36, or 57 copies EPSPS). The assay can be described thus: Spermine, spermidine or ammonium sulfate with dsRNA then glyphosate (Example 35, FIG. 39). Type of assay: in vivo. Particulars: 10 mM spermidine alone. The method, then:
The effect of the polyamine cations spermine (N,N′-bis(3-aminopropyl)butane-1,4-diamine) and spermidine (N-(3-aminopropyl)butane-1,4-diamine) on herbicidal activity of topically applied polynucleotides (RNA) on glyphosate-resistant Palmer amaranth plants was investigated. […] The dsRNA polynucleotide solutions were prepared with either 1 or 10 millimolar spermine or spermidine or 2% ammonium sulfate, in a 10 millimolar sodium phosphate (pH 6.8) buffer. Control solutions (without polynucleotides) were prepared with either 1 or 10 millimolar spermine or spermidine or 2% ammonium sulfate, in a 10 millimolar sodium phosphate (pH 6.8) buffer. Glyphosate-resistant Palmer amaranth plants (33, 36, or 57 copies EPSPS) were pre-sprayed with 1% Silwet L-77. The dsRNA polynucleotide solutions (11.6 grams/acre) or buffer solutions were applied as drops on four lower fully expanded leaves of glyphos ate resistant Palmer amaranth by pipetting. Two days following polynucleotide treatment the plants were sprayed with glyphosate (3360 g acid equivalent per hectare of Roundup® WeatherMAX® brand herbicide).

Regarding `NCCCCNCCCN` [spermidine, N-(3-aminopropyl)butane-1,4-diamine], the “plant outcome, 33-copy” value was “stunted”.

(Values after US20130047297A1, “POLYNUCLEOTIDE MOLECULES FOR GENE REGULATION IN PLANTS” (priority 2010, published 2013).)
